# Results taken from US20050244335A1, “Methods and compositions related to increasing antitumor activity of chemotherapeutic agents” (priority 2004, published 2005).
# Experiments:
# human cancer xenografts = assay: Six murine-human cancer xenograft models overall: efficacy and toxicity; conditions: nude mice; carboplatin 120 mg/kg, gemcitabine 160 mg/kg i.p.
# Method: Human cancer xenograft models were established using the methods reported previously (26-29). When confluence reached 80%, cultured LS174T, MCF-7, MDA-MB-468, U87-MG, A549 and H1299 cells were harvested from the monolayer cultures, washed with the above indicated serum-free medium and resuspended in the same medium with Matrigel® basement membrane matrix at a 3:1 ratio, and then injected subcutaneously (s.c.) (5×10^6 cells, total volume 0.2 mL) into the left inguinal area of the nude mice. The animals were monitored for activity, physical condition, determination of body weight, and measurement of tumor growth. Tumor growth was determined by caliper measurement in two perpendicular diameters of the implant every other day. Tumor weight (in g) was calculated by the formula, 1/2a×b^2 where “a” is the long diameter and “b” is the short diameter (in cm).
# Nude mice bearing human cancer xenografts were randomly divided into various treatment and control groups (5 mice/group). In treatment groups, animals were pre-treated with DEX subcutaneously (s.c., 0.1 mg/day for 5 days, Day −4-0) or saline (as controls). Carboplatin was administered intraperitoneally (i.p.) at a single dose of 120 mg/kg (360 mg/m^2) on day 0.
# The antitumor activity (tumor mass) and peripheral blood counts were expressed as mean and standard deviations and the significance of differences were analyzed by ANOVA.
# When mean tumor mass reached 44-68 mg, animals were treated with s.c. DEX at a dose of 0.1 mg/day for 5 days, followed by chemotherapy.
# [1] = test system: human breast cancer MCF-7 xenografts; assay: In vivo chemotherapy, breast cancer MCF-7 xenograft model in nude mice; conditions: MCF-7 model; agent alone
# Source text: (§1) Cell Culture. […] All media contained 1% penicillin-streptomycin.
# (§2) Data and Statistical Analysis.
# CD-1 mice = type: in vivo; conditions: CD-1 mice
# Method: Male CD-1 mice, randomly divided into multiple treatment and control groups (10 mice/group), were given DEX by subcutaneous (s.c.) injection at doses of 0.01, 0.05, 0.1, 0.3 mg/mouse/day or saline (as controls) for 5 days prior to (day −4 to 0) or after (day 0 to 4) a single intraperitoneal (i.p.) injection of carboplatin (600 mg/m^2 or 200 mg/kg) on day 0. Animals were monitored daily for activity, physical condition, body weight and 14-day survival rates.
# The significance of the differences among treated groups and controls were analyzed by ANOVA.
# [2] = test system: human breast cancer MDA-MB-468 xenografts; assay: In vivo chemotherapy, breast cancer MDA-MB-468 xenograft model in nude mice; conditions: MDA-MB-468 model; agent alone
# Source text: as §1, §2
# [3] = Pharmacokinetics of carboplatin in nude mice bearing LS174T xenografts; type: in vivo; conditions: for AUC / CL / Cmax / T1/2 / Vss: nude mice bearing LS174T xenografts, carboplatin 60 mg/kg iv
# Method: Pharmacokinetics and Tissue Distribution of Carboplatin. Pharmacokinetic studies were carried out using a protocol similar to that previously described (26) using metabolism cages. Female nude mice bearing human colon cancer LS174T xenografts or human lung cancer A549 xenografts were used (3 animals for each time point). Animals were pre-treated with DEX (s.c., 0.1 mg/day/mouse for 5 days) or saline (as controls) and, at 1 hr after the fifth dose of DEX, were given a single intravenously (i.v.) bolus administration of carboplatin (60 mg/kg) via a tail vein. At various times (5, 15, and 30 min, 1, 2, 4, 8, and 24 hr after carboplatin dosing), blood samples were collected in heparinized tubes and tissue samples removed. Plasma was separated by centrifugation at 20,000 g for 5 min. Tissues including liver, kidneys, spleen, and tumor were taken at various times and immediately blotted on Whatman No. 1 filter paper, trimmed of extraneous fat or connective tissue, weighed, and homogenized in 0.9% NaCl physiological saline (5 mL per gram of wet weight). The resultant homogenates were stored at −70° C. until further analysis. Bone marrow cells were harvested by flushing the femurs with sterile physiological saline as reported previously (30). Briefly, after removing the distal and proximal ends of femur, each end of the bone was punctured with a 20-gauge needle fitted with a 5 mL syringe containing 1 mL of sterile physiological saline (pre-weighed). The bone was then held with a forceps over a test tube and the needle was inserted into the hole in the proximal end. The 1 mL saline was flushed through the bone into the tube by applying gentle, steady pressure to the plunger. The syringe was then filled with 5 ml of air that was gently forced through the bone to remove the remaining saline and bone marrow in the shaft. The resultant bone marrow cell suspension was weighed and lysed by sonicating 5 times for periods of 10 sec. Following centrifugation at 20,000 g for 30 min, the supernatant was removed and stored at −70° C. until further analysis.
# HPLC Analysis of Carboplatin in Plasma and Tissues. Carboplatin in biological samples was analyzed by an analytical procedure involving micro-filtration and reversed-phase HPLC (31). 200 μL of plasma or tissue homogenates or bone marrow suspension was added to the reservoir of a Centrifree™ micropartition system. The latter was capped and centrifuged at 2,000 g for 5 min. All filtrates were transferred into a new micro centrifuge tube and 6 μL of the filtrates was injected onto the HPLC column. The HPLC system consisted of a Hewlett Packard 1050 ChemStation with a UV detector (Agilent 1050 series). Determination of Carboplatin was achieved using a LiChrosorb™ diol (10 μm, 250×4.6 mm) analytical column with a LiChroCART 100 RP-18 guard column. The mobile phase for plasma was composed of 98:2 acetonitrile:H2O (vol/vol) and 89:11 acetonitrile: 0.015% H3PO4 (vol/vol) for urine and tissue samples. The flow rates were 2 mL/min (for plasma) and 1.1 mL/min (for urine and tissue samples). The column elute was monitored by UV at 229 nm. Quantitation of plasma or tissue carboplatin was carried out by using an external standard curve (0-4,000.0 μg/mL) that was freshly prepared on a daily basis. Linear regression and correlation analysis were carried out to establish the standard peak-area/concentration curves for carboplatin.
# as §2
# [4] = LS174T nude mice, without DEX treatment
compound,measurement,setting,value
N.N.O=C([O-])C1(C(=O)[O-])CCC1.[Pt+2] [carboplatin],death,human cancer xenografts,no death occurred
same,tolerability by inspection and animal weights,human cancer xenografts,tolerated well
same,effect on tumor growth,[1],limited effects on tumor growth
same,survival rate,"CD-1 mice; carboplatin 600 mg/m^2 (200 mg/kg) i.p. alone (carboplatin controls), 14-day",10%
same,mortality rate,CD-1 mice; single i.p. dose of carboplatin alone 600 mg/m^2 (200 mg/kg),90%
same,effect on tumor growth,[2],no effects on tumor growth
same,decrease in tumor Clearance by DEX pretreatment,[3]; LS174T nude mice,160%
same,increase in tumor AUC by DEX pretreatment,[3]; LS174T nude mice,200%
same,increase in tumor Cmax by DEX pretreatment,[3]; LS174T nude mice,100%
same,tumor AUC relative to bone marrow AUC,[3]; [4],3%
same,tumor AUC relative to liver AUC,[3]; [4],23%
same,tumor AUC relative to spleen AUC,[3]; [4],4%
same,AUC,"[3]; bone marrow, DEX (+)",269710 ng·h/mL
same,CL,"[3]; bone marrow, DEX (+)",0.22 mL/g/h
same,Cmax,"[3]; bone marrow, DEX (+)",22560 ng/mL
same,T1/2,"[3]; bone marrow, DEX (+)",410 min
same,Vss,"[3]; bone marrow, DEX (+)",2.17 mL/g
same,AUC,"[3]; bone marrow, DEX (−)",411270 ng·h/mL
same,CL,"[3]; bone marrow, DEX (−)",0.15 mL/g/h
same,Cmax,"[3]; bone marrow, DEX (−)",23360 ng/mL
same,T1/2,"[3]; bone marrow, DEX (−)",669.6 min
same,Vss,"[3]; bone marrow, DEX (−)",2.42 mL/g
same,AUC,"[3]; liver, DEX (+)",42450 ng·h/mL
same,CL,"[3]; liver, DEX (+)",1.41 mL/g/h
same,Cmax,"[3]; liver, DEX (+)",19410 ng/mL
same,T1/2,"[3]; liver, DEX (+)",33.6 min
same,Vss,"[3]; liver, DEX (+)",1.14 mL/g
same,AUC,"[3]; liver, DEX (−)",51520 ng·h/mL
same,CL,"[3]; liver, DEX (−)",1.16 mL/g/h
same,Cmax,"[3]; liver, DEX (−)",26970 ng/mL
same,T1/2,"[3]; liver, DEX (−)",29.4 min
same,Vss,"[3]; liver, DEX (−)",0.82 mL/g
same,AUC,"[3]; plasma, DEX (+)",43160 ng·h/mL
same,CL,"[3]; plasma, DEX (+)",1.39 mL/g/h
same,Cmax,"[3]; plasma, DEX (+)",280800 ng/mL
same,T1/2,"[3]; plasma, DEX (+)",6.6 min
same,Vss,"[3]; plasma, DEX (+)",0.21 mL/g
same,AUC,"[3]; plasma, DEX (−)",44510 ng·h/mL
same,CL,"[3]; plasma, DEX (−)",1.35 mL/g/h
same,Cmax,"[3]; plasma, DEX (−)",375270 ng/mL
same,T1/2,"[3]; plasma, DEX (−)",4.8 min
same,Vss,"[3]; plasma, DEX (−)",0.16 mL/g
same,AUC,"[3]; spleen, DEX (+)",480 ng·h/mL
same,CL,"[3]; spleen, DEX (+)",126.35 mL/g/h
same,Cmax,"[3]; spleen, DEX (+)",9440 ng/mL
same,T1/2,"[3]; spleen, DEX (+)",2.4 min
same,Vss,"[3]; spleen, DEX (+)",6.36 mL/g
same,AUC,"[3]; spleen, DEX (−)",353360 ng·h/mL
same,CL,"[3]; spleen, DEX (−)",0.17 mL/g/h
same,Cmax,"[3]; spleen, DEX (−)",24200 ng/mL
same,T1/2,"[3]; spleen, DEX (−)",595 min
same,Vss,"[3]; spleen, DEX (−)",2.43 mL/g
same,AUC,"[3]; tumor, DEX (+)",33540 ng·h/mL
same,CL,"[3]; tumor, DEX (+)",1.79 mL/g/h
same,Cmax,"[3]; tumor, DEX (+)",89800 ng/mL
same,T1/2,"[3]; tumor, DEX (+)",15.6 min
same,Vss,"[3]; tumor, DEX (+)",0.67 mL/g
same,AUC,"[3]; tumor, DEX (−)",12790 ng·h/mL
same,CL,"[3]; tumor, DEX (−)",4.69 mL/g/h
same,Cmax,"[3]; tumor, DEX (−)",44160 ng/mL
same,T1/2,"[3]; tumor, DEX (−)",12 min
same,Vss,"[3]; tumor, DEX (−)",1.36 mL/g
